In US7241799B2, “Cannabimimetic indole derivatives” (University of Connecticut, priority 1999, dated 2007):
pKi: −log10 of the molar value. Where two headings read alike, the source gives them in different places.

Experiments:
CB2 receptor = biological target: T1, CB2 receptor (Mus musculus, UniProt P47936); experiment: CB2 receptor binding, [3H] CP-55,940 displacement, mouse spleen membranes; details: for Ki: mouse spleen membranes, [3H] CP-55,940, read-out: Kl CB2 (converted)
T1 construct: membranes were prepared from frozen mouse spleen; from tissue; host or cells: mouse spleen
T1 sequence (P47936 whole entry): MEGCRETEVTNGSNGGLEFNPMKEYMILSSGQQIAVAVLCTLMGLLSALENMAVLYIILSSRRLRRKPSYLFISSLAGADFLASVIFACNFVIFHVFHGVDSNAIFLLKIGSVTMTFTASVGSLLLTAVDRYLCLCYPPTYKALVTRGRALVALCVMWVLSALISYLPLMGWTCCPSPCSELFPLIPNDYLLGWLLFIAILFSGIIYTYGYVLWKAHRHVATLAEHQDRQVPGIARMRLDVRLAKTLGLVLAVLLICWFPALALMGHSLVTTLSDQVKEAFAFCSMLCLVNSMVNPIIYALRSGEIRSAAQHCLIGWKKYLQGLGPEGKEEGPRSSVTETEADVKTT
Description: (§1) The materials were tested for CB2 receptor binding affinity and for CB1 receptor affinity (to determine selectivity for the CB2 receptor). As used herein, “binding affinity” is represented by the IC50 value which is the concentration of an analog required to occupy the 50% of the total number (Bmax) of the receptors. The lower the IC50 value the higher the binding affinity.
(§2) The treated membranes were subsequently used in the binding assay described below. Approximately 30 μg of membranes were incubated in silanized 96-well microtiter plate with TME containing 0.1% essentially fatty acid-free bovine serum albumin (BSA), 0.8 nM [^3H] CP-55,940, and various concentrations of test materials at […] for 1 hour. The samples were filtered using Packard Filtermate 196 and Whatman GF/C filterplates and washed with wash buffer (TME) containing 0.5% BSA. Radioactivity was detected using MicroScint 20 scintillation cocktail added directly to the dried filterplates, and the filterplates were counted using a Packard Instruments Top-Count. Nonspecific binding was assessed using 100 nM CP-55,940. Data collected from three independent experiments performed with duplicate determinations was normalized between 100% and 0% specific binding for [^3H] CP-55,940, determined using buffer and 100 nM CP-55,940. The normalized data was analyzed using a 4-parameter nonlinear logistic equation to yield IC50 values. Data from at least two independent experiments performed in duplicate was used to calculate IC50 values which were converted to Ki values using the assumptions of Cheng et al, Relationship Between the Inhibition Constant (Ki) and the concentration of Inhibitor which causes 50% Inhibition (IC50) of an Enzymatic Reaction, Biochem. Pharmacol., 22, 3099–3102, (1973), which is incorporated by reference herein.
For the CB2 receptor binding studies, membranes were prepared from frozen mouse spleen essentially according to the procedure of P. R. Dodd et al, A Rapid Method for Preparing Synaptosomes: Comparison with Alternative Procedures, Brain Res., 226, 107–118 (1981) which is incorporated by reference herein. Silanized centrifuge tubes were used throughout to minimize receptor loss due to adsorption. The CB2 binding assay was conducted in the same manner as for the CB1 binding assay. The binding affinities (Ki) were also expressed in nanomoles (nM).

CB1 receptor = biological target: T2, CB1 receptor (Rattus norvegicus, UniProt P20272); experiment: CB1 receptor binding, [3H] CP-55,940 displacement, rat forebrain membranes; details: for pKi: rat forebrain membranes, 0.8 nM [3H] CP-55,940, read-out: Kl CB1
T2 construct: membranes were prepared from rat forebrain membranes; from tissue; host or cells: rat forebrain
T2 sequence (P20272 whole entry): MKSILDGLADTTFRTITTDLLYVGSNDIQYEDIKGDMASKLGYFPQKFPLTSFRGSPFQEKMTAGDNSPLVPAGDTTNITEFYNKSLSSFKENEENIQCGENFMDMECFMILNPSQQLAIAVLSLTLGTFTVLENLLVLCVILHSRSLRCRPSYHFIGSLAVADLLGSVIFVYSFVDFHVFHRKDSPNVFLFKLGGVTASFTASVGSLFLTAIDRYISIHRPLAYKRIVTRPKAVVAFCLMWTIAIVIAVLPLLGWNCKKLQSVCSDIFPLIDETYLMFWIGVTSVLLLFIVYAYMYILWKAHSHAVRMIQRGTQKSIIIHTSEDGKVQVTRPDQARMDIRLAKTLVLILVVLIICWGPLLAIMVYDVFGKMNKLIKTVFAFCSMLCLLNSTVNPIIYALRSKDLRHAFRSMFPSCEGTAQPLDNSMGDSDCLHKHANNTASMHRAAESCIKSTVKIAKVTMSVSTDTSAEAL
Description: as §1
For the CB1 receptor binding studies, membranes were prepared from rat forebrain membranes according to the procedure of P. R. Dodd et al, A Rapid Method for Preparing Synaptosomes: Comparison with Alternative Procedures, Brain Res., 107–118 (1981). The binding of the novel analogues to the CB1 cannabinoid receptor was assessed as described in W. A. Devane et al, Determination and Characterization of a Cannabinoid Receptor in a Rat Brain, Mol. Pharmacol., 34, 605–613 (1988) and A. Charalambous et al, 5′-azido Δ^8 THC: A Novel Photoaffinity Label for the Cannabinoid Receptor, J. Med. Chem., 35, 3076–3079 (1992) with the following changes. The above articles are incorporated by reference herein.
Membranes, previously frozen at −80° C., were thawed on ice. To the stirred suspension was added three volumes of TME (25 mM Tris-HCl buffer, 5 mM MgCl2 and 1 mM EDTA) at a pH 7.4. The suspension was incubated at 4° C. for 30 min. At the end of the incubation, the membranes were pelleted and washed three times with TME.
as §2

**Q.** Which Ki (CB2 receptor; TABLE 1, racemic samples) does the source give for `CN1CCCCC1Cn1cc(C(=O)c2ccc(N=C=S)c3ccccc23)c2ccc(N=C=S)cc21` (racemic) [AM2215] here?
**A.** The Ki was 99.6 nM.

**Q.** And the pKi (CB1 receptor; TABLE 1, racemic samples)?
**A.** Its pKi is 6.63.

**Q.** Which Ki (CB2 receptor; TABLE 1, racemic samples) does the source give for `CN1CCCCC1Cn1cc(C(=O)c2cc(N=[N+]=[N-])ccc2I)c2ccc(N=[N+]=[N-])cc21` (racemic) [AM2209] here?
**A.** The Ki was 41.8 nM.

**Q.** What about the pKi (CB1 receptor; TABLE 1, racemic samples) of the same compound?
**A.** The pKi was 7.31.

**Q.** Which Ki (CB2 receptor; TABLE 2) does the source give for `O=C(c1ccc(N=C=S)c2ccccc12)c1cn(CCCCI)c2ccccc12` [AM2216] here?
**A.** The Ki was 213 nM.

**Q.** What about the pKi (CB1 receptor; TABLE 2) of the same compound?
**A.** The pKi was 7.37.

**Q.** `Cc1ccc(S(=O)(=O)OCCCn2cc(C(=O)c3cccc4ccccc34)c3ccccc32)cc1` [AM1289] was tested. Which Ki (CB2 receptor; TABLE 2) did it give?
**A.** Its Ki is 78.6 nM.

**Q.** What about the “selectivity for the CB2 receptor” value (CB2 receptor; binding selectivity CB2 versus CB1, from the results in the TABLES) of the same compound?
**A.** The value was “high selectivity for the CB2 receptor”.

**Q.** And the pKi (CB1 receptor; TABLE 2)?
**A.** Its pKi is 6.44.

**Q.** With `Cc1c(C(=O)c2ccccc2I)c2ccc([N+](=O)[O-])cc2n1CC1CCCCN1C` (racemic) [AM664] as the compound, how does the Ki (CB2 receptor; TABLE 1, racemic samples) read?
**A.** The Ki was 80 nM.

**Q.** What about the pKi (CB1 receptor; TABLE 1, racemic samples) of the same compound?
**A.** The pKi was 7.40.

**Q.** What does the source list for `O=C(c1cccc2ccccc12)c1cn(CCCCCI)c2ccccc12` [AM2203]?
**A.** Ki (CB2 receptor; TABLE 2): 45.8 nM; pKi (CB1 receptor; TABLE 2): 8.11

**Q.** Which Ki (CB2 receptor; TABLE 2) does the source give for `O=C(c1cccc2ccccc12)c1cn(CCCCF)c2ccccc12` [AM1295] here?
**A.** The Ki was 30.7 nM.

**Q.** What about the pKi (CB1 receptor; TABLE 2) of the same compound?
**A.** The pKi was 8.60.

**Q.** What about the “selectivity for the CB1 receptor” value (CB1 receptor; binding selectivity CB1 versus CB2, from the results in the TABLES) of the same compound?
**A.** Its value is “high selectivity for the CB1 receptor”.

**Q.** Which Ki (CB2 receptor; TABLE 2) does the source give for `O=C(c1cccc2ccccc12)c1cn(CCCN=C=S)c2ccccc12` [AM1294] here?
**A.** The Ki was 237 nM.

**Q.** And the pKi (CB1 receptor; TABLE 2)?
**A.** Its pKi is 6.55.

**Q.** Which Ki (CB2 receptor; TABLE 2) does the source give for `Cc1c(C(=O)c2ccccc2I)c2ccccc2n1CCCCCF` [AM2225] here?
**A.** Its Ki is 3.8 nM.

**Q.** What about the pKi (CB1 receptor; TABLE 2) of the same compound?
**A.** The pKi was 8.22.

**Q.** Which Ki (CB2 receptor; TABLE 2) does the source give for `O=C(c1cccc2ccccc12)c1cn(CCCCCF)c2ccccc12` [AM2201] here?
**A.** Its Ki is 2.6 nM.

**Q.** What about the pKi (CB1 receptor; TABLE 2) of the same compound?
**A.** Its pKi is 9.00.

**Q.** For `CN1CCCCC1Cn1cc(C(=O)c2ccc(I)c3ccccc23)c2ccc(N=[N+]=[N-])cc21` (racemic) [AM2212], which Ki (CB2 receptor; TABLE 1, racemic samples) is on record?
**A.** The Ki was 2.9 nM.

**Q.** What about the pKi (CB1 receptor; TABLE 1, racemic samples) of the same compound?
**A.** The pKi was 7.51.

**Q.** For `Cc1ccc(S(=O)(=O)OCCCCCn2cc(C(=O)c3ccccc3I)c3ccccc32)cc1` [AM697], which Ki (CB2 receptor; TABLE 2) is on record?
**A.** The Ki was 1120 nM.

**Q.** And the pKi (CB1 receptor; TABLE 2)?
**A.** The pKi was 5.88.

**Q.** Which Ki (CB2 receptor; TABLE 2) does the source give for `N#CCCCCn1cc(C(=O)c2cccc3ccccc23)c2ccc([N+](=O)[O-])cc21` [AM2231] here?
**A.** The Ki was 23.9 nM.

**Q.** And the pKi (CB1 receptor; TABLE 2)?
**A.** Its pKi is 8.31.

**Q.** For `CC(=O)OCCCCCn1cc(C(=O)c2ccccc2I)c2ccccc21` [AM692], which Ki (CB2 receptor; TABLE 2) is on record?
**A.** Its Ki is 1520 nM.

**Q.** And the pKi (CB1 receptor; TABLE 2)?
**A.** Its pKi is 5.58.

**Q.** `O=C(c1cccc2ccccc12)c1cn(CCCCCO)c2cc(I)ccc12` [AM1238] was tested. Which Ki (CB2 receptor; TABLE 2) did it give?
**A.** Its Ki is 17.3 nM.

**Q.** What about the pKi (CB1 receptor; TABLE 2) of the same compound?
**A.** The pKi was 8.51.

**Q.** Which results are given for `Cc1ccc(S(=O)(=O)OCCCCCn2c(C)c(C(=O)c3ccccc3I)c3ccccc32)cc1` [AM2227]?
**A.** Ki (CB2 receptor; TABLE 2): 2970 nM; pKi (CB1 receptor; TABLE 2): 5.99

**Q.** For `Cc1c(C(=O)c2ccccc2)c2ccc(N=[N+]=[N-])cc2n1CC1CCCCN1C` (racemic) [AM671], which Ki (CB2 receptor; TABLE 1, racemic samples) is on record?
**A.** The Ki was 59.1 nM.

**Q.** What about the pKi (CB1 receptor; TABLE 1, racemic samples) of the same compound?
**A.** The pKi was 6.81.

**Q.** For `CN1CCCCC1Cn1cc(C(=O)c2cccc3ccccc23)c2ccc(N)cc21` (racemic) [AM1219], which Ki (CB2 receptor; TABLE 1, racemic samples) is on record?
**A.** The Ki was 31.3 nM.

**Q.** What about the pKi (CB1 receptor; TABLE 1, racemic samples) of the same compound?
**A.** Its pKi is 7.02.
